# Assay results taken from PubChem BioAssay (NCI).
#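 96-well plates; 48 h exposure; 5 concentrations. Endpoints by linear interpolation between flanking doses. Not reached: highest tested concentration assigned. The concentration for 50% growth inhibition is given as GI50. TGI marks complete inhibition of growth.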
# Legend:
# Assay in all cases: NCI-60 cell line screen, 48 h
# A549 NSCLC = tested on: A549 NSCLC
# DLD-1 colon = tested on: DLD-1 colon
# KM12 colon = tested on: KM12 colon
# NCI-H226 lung = tested on: NCI-H226 lung
# UACC-257 melanoma = tested on: UACC-257 melanoma
# HOP-62 NSCLC = tested on: HOP-62 NSCLC
# M19-MEL melanoma = tested on: M19-MEL melanoma
# RXF 393 renal = tested on: RXF 393 renal
# SK-MEL-2 melanoma = tested on: SK-MEL-2 melanoma
# NCI/ADR-RES ovarian = tested on: NCI/ADR-RES ovarian
Structure (SMILES),TGI (A549 NSCLC),TGI (DLD-1 colon),TGI (KM12 colon),TGI (NCI-H226 lung),TGI (UACC-257 melanoma),TGI (HOP-62 NSCLC),TGI (M19-MEL melanoma),TGI (RXF 393 renal),TGI (SK-MEL-2 melanoma),GI50 (SK-MEL-2 melanoma),GI50 (A549 NSCLC),GI50 (KM12 colon),GI50 (NCI-H226 lung),GI50 (UACC-257 melanoma),GI50 (HOP-62 NSCLC),GI50 (NCI/ADR-RES ovarian),TGI (NCI/ADR-RES ovarian),GI50 (RXF 393 renal)
CC1(C)COC2C(N(Cc3ccccc3)Cc3ccccc3)C(=O)N21 (stereo not drawn),> 100 µM,> 100 µM,> 100 µM,> 100 µM,> 100 µM,> 100 µM,> 100 µM,42.5 µM,–,–,–,–,–,–,–,–,–,–
C[N+](C)(C)CC1CCCCC1=O (stereo not drawn),> 100 µM,39.2 µM,> 100 µM,> 100 µM,30.9 µM,> 100 µM,35.2 µM,33.8 µM,–,–,–,–,–,–,–,–,–,–
CC1=Nc2ccccc2SC(c2c(Cl)cccc2Cl)C1 (stereo not drawn),4.43 µM,1.42 µM,2.15 µM,3.05 µM,3.3 µM,3.76 µM,2.44 µM,2.69 µM,–,–,–,–,–,–,–,–,–,–
CCCC(=O)N[C@H]1CCc2cc(OC)c(OC)c(OC)c2-c2ccc(SC)c(=O)cc21,> 100 µM,> 100 µM,< 0.01 µM,0.215 µM,> 74.1 µM,> 91.2 µM,> 100 µM,–,–,–,–,–,–,–,–,–,–,–
Clc1ccccc1CN1COc2c(ccc3cccnc23)C1,14.2 µM,17.5 µM,18.1 µM,19.4 µM,8.2 µM,7.25 µM,15.1 µM,–,6.63 µM,–,–,–,–,–,–,–,–,–
COC(=O)C(C(=O)C(=O)Nc1ccc(C)cc1C)c1csc(-n2nc(-c3ccccc3)cc2-c2ccccc2)n1 (stereo not drawn),> 100 µM,> 100 µM,> 100 µM,> 100 µM,> 100 µM,> 100 µM,> 100 µM,> 100 µM,–,–,–,–,–,–,–,–,–,–
COc1cc(OCc2cccc(-c3ccccc3)c2C)cc(OC)c1CN1CCCCC1C(=O)NCCOCCOCCN (stereo not drawn),10.7 µM,–,11.4 µM,30.9 µM,3.68 µM,6.06 µM,–,11.4 µM,4.03 µM,1.96 µM,3.04 µM,3.2 µM,14.7 µM,1.83 µM,2.3 µM,12.6 µM,27.2 µM,3.26 µM
Nc1c(C(=O)c2cccc(C#CCN3CCCCC3)c2)cnn1-c1ccc(F)cc1,> 25 µM,–,> 25 µM,> 25 µM,> 25 µM,> 25 µM,–,> 25 µM,> 25 µM,> 25 µM,> 25 µM,18.7 µM,> 23.4 µM,> 24.1 µM,> 25 µM,> 19.9 µM,> 25 µM,14 µM
CCCc1nc(Cl)nc(Cl)c1Cl,6.59 µM,–,2.77 µM,8.97 µM,2 µM,2.44 µM,–,0.798 µM,2.07 µM,–,–,–,–,–,–,–,> 22.4 µM,–
CN(C)CCCOc1cccc(NC2=C(Cl)C(=O)C(Nc3cccc(OCCCN(C)C)c3)=C(Cl)C2=O)c1,3.5 µM,–,2.73 µM,14.1 µM,2.28 µM,3.68 µM,–,2.22 µM,3.2 µM,1.53 µM,1.9 µM,1.32 µM,5.85 µM,0.941 µM,1.93 µM,2.62 µM,9.69 µM,0.885 µM
